{"source": "patent US20060014750A1", "about": "“Pharmaceutical compositions for the treatment of CNS and other disorders” (Pfizer Inc, priority 2001, published 2006)", "note": "Structures can show the parent of a compound that is named as a salt.", "data": [{"units": {"melting point": "°C"}, "values": [{"smiles": "O=C(OCc1ccccc1)N1CCN2CCC1CC2", "note": "(as salt: hydrochloride)", "melting point": 235.6}, {"smiles": "O=C(Oc1ccc(C2CCCCC2)cc1)N1CCN2CCC1CC2", "note": "(as salt: hydrochloride)", "melting point": 294.1}, {"smiles": "O=C(Oc1ccc(C2CCc3ccccc32)cc1)N1CCN2CCC1CC2", "note": "(stereo not shown) (as salt: hydrochloride)", "melting point": 168.7}, {"smiles": "O=C(Oc1ccc(Cl)c(Cl)c1)N1CCN2CCC1CC2", "note": "(as salt: hydrochloride)", "melting point": 260.2}, {"smiles": "CC(C)(C)c1ccc(OC(=O)N2CCN3CCC2CC3)cc1", "note": "(as salt: hydrochloride)", "melting point": 289.7}, {"smiles": "O=C(Oc1ccccc1)N1CCN2CCC1CC2", "melting point": 254.8}, {"smiles": "COC(=O)N1CCN2CCC1CC2", "note": "(as salt: hydrochloride)", "melting point": 198.7}, {"smiles": "O=C(Oc1cccc(C(F)(F)F)c1)N1CCN2CCC1CC2", "note": "(as salt: hydrochloride)", "melting point": 229.3}, {"smiles": "COc1cccc(OC(=O)N2CCN3CCC2CC3)c1", "note": "(as salt: hydrochloride)", "melting point": 204.3}, {"smiles": "O=C(Oc1cccc(-c2cccnc2)c1)N1CCN2CCC1CC2", "note": "(as salt: hydrochloride)", "melting point": 210.2}, {"smiles": "O=C(Oc1ccccc1I)N1CCN2CCC1CC2", "note": "(as salt: hydrochloride)", "melting point": 254}, {"smiles": "O=C(Nc1ccc(Br)cc1)N1CCN2CCC1CC2", "note": "(as salt: HCl)", "melting point": "228 to 231"}, {"smiles": "Cc1cc(OC(=O)N2CCN3CCC2CC3)ccc1Br", "note": "(as salt: hydrochloride)", "melting point": 212.5}, {"smiles": "Cc1cccc(OC(=O)N2CCN3CCC2CC3)c1", "note": "(as salt: hydrochloride)", "melting point": 249.2}, {"smiles": "O=C(Oc1cccc([N+](=O)[O-])c1)N1CCN2CCC1CC2", "note": "(as salt: hydrochloride)", "melting point": 205.1}, {"smiles": "Cc1ccc(OC(=O)N2CCN3CCC2CC3)cc1C", "note": "(as salt: hydrochloride)", "melting point": 246}, {"smiles": "O=C(Oc1ccc(Br)c(Cl)c1)N1CCN2CCC1CC2", "note": "(as salt: hydrochloride)", "melting point": 234.7}, {"smiles": "O=C(Oc1cccc(F)c1)N1CCN2CCC1CC2", "note": "(as salt: hydrochloride)", "melting point": 228.2}, {"smiles": "O=C(Oc1ccc(I)cc1)N1CCN2CCC1CC2", "note": "(as salt: hydrochloride)", "melting point": 280.2}, {"smiles": "O=C(c1ccccc1)c1cccc(OC(=O)N2CCN3CCC2CC3)c1", "note": "(as salt: hydrochloride)", "melting point": 241.7}, {"smiles": "O=C(Oc1cccc(Oc2ccccc2)c1)N1CCN2CCC1CC2", "note": "(as salt: hydrochloride)", "melting point": 204.8}, {"smiles": "O=C(Oc1ccccc1[N+](=O)[O-])N1CCN2CCC1CC2", "note": "(as salt: hydrochloride)", "melting point": 260.4}, {"smiles": "N#Cc1ccc(-c2ccc(OC(=O)N3CCN4CCC3CC4)cc2)cc1", "note": "(as salt: hydrochloride)", "melting point": "> 300"}, {"smiles": "CC(=O)N1CCN(c2ccc(OC(=O)N3CCN4CCC3CC4)cc2)CC1", "note": "(as salt: hydrochloride)", "melting point": 166.6}, {"smiles": "O=C(Oc1ccc2ccccc2c1)N1CCN2CCC1CC2", "note": "(as salt: hydrochloride)", "melting point": 255.5}, {"smiles": "O=C(Oc1ccccc1C(F)(F)F)N1CCN2CCC1CC2", "note": "(as salt: hydrochloride)", "melting point": 228.7}, {"smiles": "CSc1ccc(OC(=O)N2CCN3CCC2CC3)cc1", "note": "(as salt: hydrochloride)", "melting point": 235.2}, {"smiles": "O=C(Oc1ccc(OCc2ccccc2)cc1)N1CCN2CCC1CC2", "note": "(as salt: hydrochloride)", "melting point": 278.5}, {"smiles": "CCOC(=O)N1CCN2CCC1CC2", "note": "(as salt: hydrochloride)", "melting point": 207.7}, {"smiles": "O=C(Oc1ccccc1Cl)N1CCN2CCC1CC2", "note": "(as salt: hydrochloride)", "melting point": 251.2}, {"smiles": "O=C(Oc1ccc(-n2ccnc2)cc1)N1CCN2CCC1CC2", "note": "(as salt: hydrochloride)", "melting point": "> 300"}, {"smiles": "Cc1cc(OC(=O)N2CCN3CCC2CC3)cc(C)c1Br", "note": "(as salt: hydrochloride)", "melting point": 239.5}, {"smiles": "O=C(Oc1ccccc1Cc1ccccc1)N1CCN2CCC1CC2", "note": "(as salt: hydrochloride)", "melting point": 214}, {"smiles": "O=C(Oc1ccc(F)cc1)N1CCN2CCC1CC2", "note": "(as salt: hydrochloride)", "melting point": 276.8}, {"smiles": "CCCOC(=O)N1CCN2CCC1CC2", "note": "(as salt: hydrochloride)", "melting point": 242}, {"smiles": "O=C(Oc1cccc(I)c1)N1CCN2CCC1CC2", "note": "(as salt: hydrochloride)", "melting point": 243.8}, {"smiles": "O=C(Oc1ccc(C(F)(F)F)cc1)N1CCN2CCC1CC2", "note": "(as salt: hydrochloride)", "melting point": 260.7}, {"smiles": "CC(C)COC(=O)N1CCN2CCC1CC2", "note": "(as salt: hydrochloride)", "melting point": 266.5}, {"smiles": "O=C(Oc1ccc([N+](=O)[O-])cc1)N1CCN2CCC1CC2", "note": "(as salt: hydrochloride)", "melting point": 267.5}, {"smiles": "O=C(Oc1ccc(-n2cncn2)cc1)N1CCN2CCC1CC2", "note": "(as salt: hydrochloride)", "melting point": 253.1}, {"smiles": "O=C(Oc1cccc(Br)c1)N1CCN2CCC1CC2", "note": "(as salt: hydrochloride)", "melting point": 224.5}, {"smiles": "S=C(Oc1ccccc1)N1CCN2CCC1CC2", "note": "(as salt: hydrochloride)", "melting point": 272.2}, {"smiles": "O=C(Oc1ccccc1-c1nc2ccccc2s1)N1CCN2CCC1CC2", "note": "(as salt: hydrochloride)", "melting point": 247.6}, {"smiles": "O=C(Oc1ccc2cc(Br)ccc2c1)N1CCN2CCC1CC2", "melting point": 174.2}, {"smiles": "O=C(Oc1ccc(Cc2ccccc2)cc1)N1CCN2CCC1CC2", "note": "(as salt: hydrochloride)", "melting point": 221.8}, {"smiles": "CCCCCCCCOC(=O)N1CCN2CCC1CC2", "note": "(as salt: hydrochloride)", "melting point": 217.5}, {"smiles": "O=C(Oc1ccccc1-c1nc2ccccc2o1)N1CCN2CCC1CC2", "note": "(as salt: hydrochloride)", "melting point": 259.9}, {"smiles": "O=C(Oc1ccc(Cl)cc1)N1CCN2CCC1CC2", "note": "(as salt: hydrochloride)", "melting point": 257.5}, {"smiles": "O=C(Oc1ccc(Oc2ccccc2)cc1)N1CCN2CCC1CC2", "note": "(as salt: hydrochloride)", "melting point": 238}, {"smiles": "N#Cc1ccc(OC(=O)N2CCN3CCC2CC3)cc1", "note": "(as salt: hydrochloride)", "melting point": 289.8}, {"smiles": "COc1ccc(OC(=O)N2CCN3CCC2CC3)cc1", "note": "(as salt: hydrochloride)", "melting point": 269.7}, {"smiles": "COC(=O)c1ccc(OC(=O)N2CCN3CCC2CC3)cc1", "note": "(as salt: hydrochloride)", "melting point": 237.4}, {"smiles": "O=C(Oc1ccc(-c2ccc(Br)cc2)cc1)N1CCN2CCC1CC2", "note": "(as salt: hydrochloride)", "melting point": "> 300"}, {"smiles": "O=C(Oc1ccccc1Br)N1CCN2CCC1CC2", "note": "(as salt: hydrochloride)", "melting point": 267.2}, {"smiles": "CC(C)(C)c1cccc(OC(=O)N2CCN3CCC2CC3)c1", "note": "(as salt: hydrochloride)", "melting point": 283.4}]}]}
